The values below come from patent US20090202428A1, “Use of Dtbz for Imaging Endocrine Pancreas and Beta Cell Mass In Type 1 Diabetes” (priority 2005, published 2009).

Data set [1] addresses T1, VMAT2 expressed by β-cells of the endocrine pancreas (Rattus norvegicus, UniProt Q01827).
T1 construct: The inventors next targeted VMAT2 expressed by β-cells of the endocrine pancreas with [11C]; DTBZ; from tissue; host or cells: pancreas (beta cells of the islets) of living Lewis rats, normal and STZ-induced diabetic
Description: PET imaging with [11C]DTBZ of normal and STZ induced diabetic Lewis rats. In kind it is in vivo.
Description: Specific activities of carbon-11 labeled radiotracers were >2000 mCi/μmol at the time of injection.
STZ solution was prepared fresh by dissolving it in 0.1 M citrate buffer (pH 5.5) and terminally sterile filtered. Age and weight-matched control rats were injected with citrate buffer alone.
PET scans were performed on four normal and three diabetic adult rat subjects. Prior to imaging, the animals were anesthetized with intraperitoneal injections of ketamine and xylazine. After a whole-body transmission scan had been obtained (used to perform attenuation correction of the emission data), the radioligand was taken up in a sterile saline vehicle and 200-300 μCi of [11C] DTBZ was administered in a bolus injection via the penile vein. PET scans of the animals were acquired dynamically to 60 min postinjection on a Concorde microPET-R4 (CTI Molecular Imaging, Knoxville, Tenn., USA). The scanner provided a 100×80 mm field of view with a reconstructed resolution of 2.25 mm in the central 40 mm of the field of view. PET data were processed using attenuation correction matrix obtained by transmission scans and images were reconstructed using Fourier re-binning, followed by two-dimensional, filtered back projection. […]

The test system of a further data set is VMAT2. The settings on record: previous studies (Scherman et al.); cited from earlier work.
Data set [2] deals with islet membranes (purified human islets). In words: binding of [3H]DTBZ to total membrane fractions from purified human islets. From the text: (§1) Previous studies, at both protein and nucleic acid levels, have shown the underlying physiochemical basis for this functional similarity (Atouf, et al, 1997, Expression of neuronal traits in pancreatic beta cells. Implication of neuron-restrictive silencing factor/repressor element silencing transcription factor, a neuron-restrictive silencer, J Biol Chem 272:1929-1934, Bernal-Mizrachi, et al, 2003, Gene expression profiling in islet biology and diabetes research, Diabetes Metab Res Rev 19:32-42, and […] al, 1996, Differentiation and growth of pancreatic beta cells, Diabetes Metab 22:223-228). The inventors own gene expression mapping studies led them to focus on one such shared gene product, VMAT2, vesicular monoamine transporter type 2, expressed by β-cells, but absent from the exocrine pancreas and a variety of-the other abdominal organs ([…], et al, 2004, Identification of tissue-restricted transcripts in human islets, Endocrinology 145:4513-4521). A specific ligand for VMAT2, dihydrotetrabenazine (DTBZ) is already in clinical use for positron emission tomography (PET) imaging of central nervous system disorders (Vander Borght, et al, 1995, In vivo imaging of the brain vesicular monoamine transporter, J Nucl Med 36:2252-2260). The inventors studied the binding of [3H]DTBZ to total membranes fractions prepared from purified human islets and purified exocrine pancreas tissue.

The test system of data set [3] is membranes from the exocrine pancreas. In words: binding of [3H]DTBZ to total membrane fractions from purified exocrine pancreas tissue. More on the design: species or system human.
From the text: as §1

In a further data set the test system is endocrine pancreas. Description: serial PET imaging with [11C]DTBZ in the spontaneously diabetic BB-DP rat model. In kind it is in vivo. The settings on record: series of ten BB-DP rats, compared with IPGTT.

T1 sequence (Q01827 whole entry): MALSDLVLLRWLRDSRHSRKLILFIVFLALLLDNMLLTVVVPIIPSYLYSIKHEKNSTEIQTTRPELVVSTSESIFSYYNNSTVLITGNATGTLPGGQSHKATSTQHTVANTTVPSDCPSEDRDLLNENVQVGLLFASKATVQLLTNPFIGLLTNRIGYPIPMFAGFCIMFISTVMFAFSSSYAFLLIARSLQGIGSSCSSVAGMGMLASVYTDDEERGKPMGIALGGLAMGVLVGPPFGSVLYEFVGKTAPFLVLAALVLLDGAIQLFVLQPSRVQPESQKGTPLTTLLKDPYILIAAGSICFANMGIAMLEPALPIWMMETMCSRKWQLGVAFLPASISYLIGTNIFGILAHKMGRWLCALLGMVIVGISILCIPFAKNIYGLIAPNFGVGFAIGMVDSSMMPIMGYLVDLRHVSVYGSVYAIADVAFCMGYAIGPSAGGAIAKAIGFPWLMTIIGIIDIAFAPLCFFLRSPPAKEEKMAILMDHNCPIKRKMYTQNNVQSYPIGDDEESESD

With `COc1cc2c(cc1OC)[C@H]1C[C@@H](O)[C@H](CC(C)C)CN1CC2` [DTBZ, dihydrotetrabenazine], the “DTBZ uptake in gastric and splenic regions of the pancreas compared to the head of the organ” value in data set [1] (normal rat pancreata, PET) is “higher”. The “time post-injection up to which pancreatic DTBZ uptake increased monotonically” value in data set [1] (normal rat, 60 min imaging period, from 1 minute) was “about 50 minutes”. The “target specificity of DTBZ” value with VMAT2 is “specifically targets VMAT2”.

For the compound `COc1cc2c(cc1OC)[C@H]1C[C@@H](O)[C@H](CC(C)C)CN1CC2` [[3H]DTBZ], the “binding of [3H]DTBZ to islet membranes” value in data set [2] is listed as “specifically bound”. Also, the “binding of [3H]DTBZ to membranes from the exocrine pancreas” value in data set [3] is “not”.

Regarding `COc1cc2c(cc1O[11CH3])CCN1CC(CC(C)C)C(O)CC21` (stereo not drawn) [[11C]DTBZ, [11C] dihydrotetrabenazine], the “reduction of [11C]DTBZ uptake that resulted in signs of glucose intolerance and hyperglycemia” value with endocrine pancreas is “approximately 50%”.
